Type in all cases: cell-based
A short description of series [1]: Cytotoxicity against Hek 293. As to conditions: human, HEK293 cells, 26.0 uM highest concentration measured.
A short description of series [2]: Cytotoxicity against HepG2. As to conditions: human, HepG2 cells, 26.0 uM highest concentration measured.
Series [3] deals with replicating M. tuberculosis H37Rv. Nature of the series: microbe, parasite or virus in culture. As to conditions: Mycobacterium tuberculosis, H37RV, three independent experiments in triplicate, read-out: TB Growth Inhibition Activity, IC90 Replicating_logarithmic (converted).
The subject of series [4] is carbon-starved M. tuberculosis H37Rv. Kind of series: Non-replicating IC90 determination by luciferase (carbon-starved cells). Conditions: Mycobacterium tuberculosis, H37RV; non-replicating carbon-starved Mtb, luciferase; three independent experiments in triplicate; read-out: TB Growth Inhibition Activity, IC90 Non-replicating_luciferase.
A short description of series [5]: Cytotoxicity against HeLa. Conditions: human, HeLa cells, 26.0 uM highest concentration measured.

As a reminder, the IC50 is the concentration that gives 50% inhibition. A word on the IC90: it is the concentration needed for an effect of 90%.

With `CN(Cc1ccccc1)c1nnc(-c2ccccc2)o1`, the half-maximal inhibitory concentration (IC50) in series [1], in series [2] and in series [5] was over 26 µM throughout. Also, the concentration for an effect of 90% (IC90) in series [3] is 250 µM; in series [4] it was 0.5 µM.
Take `c1ccc(CCc2nnc(-c3ccccc3)o2)cc1`: the IC50 in series [1], in series [2] and in series [5] was over 26 µM throughout. In addition, the concentration for an effect of 90% (IC90) in series [3] is 250 µM; in series [4], 0.5 µM.
As for `c1ccc(CSc2nnc(C3CCCCC3)o2)cc1`, the IC50 in series [1], in series [2] and in series [5] was over 26 µM each time. Also, the IC90 is 125 µM in series [3] and 1 µM in series [4].
Consider `c1ccc(CSc2nnc(C3CCCC3)o2)cc1`, for which the half-maximal inhibitory concentration (IC50) in series [1], in series [2] and in series [5] was over 26 µM throughout. The IC90 in series [3] was 125 µM; in series [4], 0.5 µM.
As to `CC(C)c1nnc(SCc2ccccc2)o1`, the IC50 in series [1], in series [2] and in series [5] was over 26 µM in each case. The IC90 in series [3] is 125 µM; in series [4], 2 µM.
On to `c1ccc(CSc2nnc(Cc3ccccc3)o2)cc1`, for which the IC50 in series [1], in series [2] and in series [5] was over 26 µM in each case. Moreover, the 90% effect concentration (IC90) was 500 µM in series [3] and 4 µM in series [4].
Regarding `c1ccc(CCc2nnc(SCc3ccccc3)o2)cc1`, the IC50 in series [1], in series [2] and in series [5] was over 26 µM throughout. Moreover, the IC90 in series [3] is 250 µM; in series [4], 32 µM.
`COc1ccccc1-c1nnc(SCc2ccccc2)o1`: the IC50 in series [1], in series [2] and in series [5] was over 26 µM each time. Further, the IC90 in series [3] is 250 µM; in series [4], 125 µM.
Take `Fc1ccccc1-c1nnc(SCc2ccccc2)o1`: the IC50 in series [1], in series [2] and in series [5] was over 26 µM each time. For the same compound, the IC90 in series [3] is 125 µM; in series [4], 2 µM.
Turning to `CS(=O)(=O)c1cccc(-c2nnc(SCc3ccccc3)o2)c1`, the IC50 in series [1], in series [2] and in series [5] was over 26 µM in each case. In addition, the 90% effect concentration (IC90) in series [4] amounted to 125 µM.
On to `N#Cc1cccc(-c2nnc(SCc3ccccc3)o2)c1`, for which the concentration for half-maximal inhibition (IC50) in series [1], in series [2] and in series [5] was over 26 µM throughout. The 90% effect concentration (IC90) in series [4] came out at 8 µM.
As to `COc1ccc(-c2nnc(SCc3ccccc3)o2)cc1`, the IC50 in series [1], in series [2] and in series [5] was over 26 µM in each case. Moreover, in series [4], the IC90 is 31 µM.
On to `FC(F)(F)Oc1ccc(-c2nnc(SCc3ccccc3)o2)cc1`, for which the half-maximal inhibitory concentration (IC50) in series [1], in series [2] and in series [5] was over 26 µM throughout. For the same compound, the IC90 in series [4] is 2 µM.
In the case of `FC(F)(F)c1ccc(-c2nnc(SCc3ccccc3)o2)cc1`, the IC50 in series [1], in series [2] and in series [5] was over 26 µM throughout. Further, the 90% effect concentration (IC90) in series [4] came out at 1 µM.
Regarding `N#Cc1ccc(-c2nnc(SCc3ccccc3)o2)cc1`, the IC50 in series [1], in series [2] and in series [5] was over 26 µM each time. The concentration for an effect of 90% (IC90) in series [4] is 8 µM.
As for `c1ccc(CSc2nnc(-c3ccncc3)o2)cc1`, the half-inhibitory concentration (IC50) in series [1], in series [2] and in series [5] was over 26 µM in each case. Besides, in series [4], the IC90 turned out to be 31 µM.
`c1ccc(CSc2nnc(-c3cnco3)o2)cc1`: the IC50 in series [1], in series [2] and in series [5] was over 26 µM in each case. Also, the IC90 in series [4] was 8 µM.
As for `c1ccc(CSc2nnc(-c3cc4ccccc4o3)o2)cc1`, the IC50 in series [1], in series [2] and in series [5] was over 26 µM in each case. Besides, the IC90 in series [4] amounted to 2 µM.
Consider `Fc1ccccc1CSc1nnc(-c2ccccc2)o1`, for which the half-maximal inhibitory concentration (IC50) in series [1], in series [2] and in series [5] was over 26 µM in each case. For the same compound, the IC90 in series [3] is 250 µM; in series [4], 1 µM.
As to `Clc1ccccc1CSc1nnc(-c2ccccc2)o1`, the IC50 in series [1], in series [2] and in series [5] was over 26 µM in each case. For the same compound, the IC90 was 250 µM in series [3] and 2 µM in series [4].
Consider `FC(F)(F)Oc1ccccc1CSc1nnc(-c2ccccc2)o1`, for which the IC50 in series [1], in series [2] and in series [5] was over 26 µM in each case. The results for the concentration for an effect of 90% (IC90) in series [3] and in series [4] were 500 µM and 4 µM, respectively.
Regarding `Cc1cccc(CSc2nnc(-c3ccccc3)o2)c1`, the 50% inhibitory concentration (IC50) in series [1], in series [2] and in series [5] was over 26 µM throughout. In addition, the concentration for an effect of 90% (IC90) in series [3] is 125 µM; in series [4] it was 1 µM.
For the compound `Fc1cccc(CSc2nnc(-c3ccccc3)o2)c1`, the 50% inhibitory concentration (IC50) in series [1], in series [2] and in series [5] was over 26 µM in each case. In addition, the concentration for an effect of 90% (IC90) in series [3] was 250 µM; in series [4], 2 µM.
As to `FC(F)(F)c1cccc(CSc2nnc(-c3ccccc3)o2)c1`, the 50% inhibitory concentration (IC50) in series [1], in series [2] and in series [5] was over 26 µM throughout. The IC90 in series [3] was 250 µM; in series [4], 4 µM.
For the compound `CS(=O)(=O)c1cccc(CSc2nnc(-c3ccccc3)o2)c1`, the half-maximal inhibitory concentration (IC50) in series [1], in series [2] and in series [5] was over 26 µM in each case. The concentration for an effect of 90% (IC90) in series [3] and in series [4] was 250 µM throughout.
In the case of `c1ccc(-c2nnc(SCc3ncco3)o2)cc1`, the half-maximal inhibitory concentration (IC50) in series [1], in series [2] and in series [5] was over 26 µM each time. Further, the IC90 in series [3] was 31 µM; in series [4], 16 µM.
For `c1ccc(-c2nnc(SCc3cscn3)o2)cc1`, the IC50 in series [1], in series [2] and in series [5] was over 26 µM in each case. Also, the 90% effect concentration (IC90) in series [3] is 62 µM; in series [4] it was 4 µM.
`CN(C)CCSc1nnc(-c2ccccc2)o1`: the concentration for half-maximal inhibition (IC50) in series [1], in series [2] and in series [5] was over 26 µM in each case. For the same compound, the IC90 in series [3] was 500 µM; in series [4], 16 µM.
`FC1(F)CN(CCSc2nnc(-c3ccccc3)o2)C1`: the IC50 in series [1], in series [2] and in series [5] was over 26 µM each time. The figures for the concentration for an effect of 90% (IC90) in series [3] and in series [4] were 250 µM and 1 µM, respectively.
`c1ccc(Cn2cc(CSc3nnc(-c4ccccc4)o3)nn2)cc1`: the half-maximal inhibitory concentration (IC50) in series [1], in series [2] and in series [5] was over 26 µM throughout. Also, the IC90 in series [3] was over 62 µM; in series [4], 4 µM.
In the case of `Fc1ccc(-c2nnc(SCc3cn(Cc4ccccc4)nn3)o2)cc1`, the IC50 in series [1], in series [2] and in series [5] was over 26 µM in each case. The IC90 in series [3] was over 62 µM; in series [4], 2 µM.
For `c1ccc(Cn2cc(CSc3nnc(C4CCCC4)o3)nn2)cc1`, the IC50 in series [1], in series [2] and in series [5] was over 26 µM each time. The 90% effect concentration (IC90) is 62 µM in series [3] and 31 µM in series [4].
In the case of `c1ccc(Cn2cc(CSc3nnc(C4CCC4)o3)nn2)cc1`, the IC50 in series [1], in series [2] and in series [5] was over 26 µM in each case. The concentration for an effect of 90% (IC90) is over 62 µM in series [3] and 8 µM in series [4].
As to `Fc1ccc(Cn2cc(CSc3nnc(C4CCCC4)o3)nn2)cc1`, the concentration for half-maximal inhibition (IC50) in series [1], in series [2] and in series [5] was over 26 µM in each case. The IC90 in series [3] was over 62 µM; in series [4], 31 µM.
As to `Fc1ccc(Cn2cc(CSc3nnc(C4CCC4)o3)nn2)cc1`, the IC50 in series [1], in series [2] and in series [5] was over 26 µM each time. For the same compound, the 90% effect concentration (IC90) in series [3] is over 62 µM; in series [4], 8 µM.
As to `Fc1ccc(Cn2cc(CSc3nnc(-c4ccc(F)cc4)o3)nn2)cc1`, the 50% inhibitory concentration (IC50) in series [1], in series [2] and in series [5] was over 26 µM in each case. Also, the IC90 in series [3] was over 62 µM; in series [4] it was 4 µM.
As for `Fc1ccc(Cn2cc(CSc3nnc(-c4ccc(Cl)cc4)o3)nn2)cc1`, the 50% inhibitory concentration (IC50) in series [1], in series [2] and in series [5] was over 26 µM in each case. Further, the figures for the 90% effect concentration (IC90) in series [3] and in series [4] were over 62 µM and 2 µM, respectively.
Consider `Fc1ccc(-c2nnc(SCc3cn(-c4ccccc4)nn3)o2)cc1`, for which the half-maximal inhibitory concentration (IC50) in series [1], in series [2] and in series [5] was over 26 µM in each case. In addition, the IC90 in series [3] is over 62 µM; in series [4], 2 µM.
Regarding `c1ccc(-n2cc(CSc3nnc(C4CCC4)o3)nn2)cc1`, the IC50 in series [1], in series [2] and in series [5] was over 26 µM in each case. For the same compound, the concentration for an effect of 90% (IC90) in series [3] was 62 µM; in series [4] it was 2 µM.
In the case of `c1ccc(-n2cc(CSc3nnc(C4CCCC4)o3)nn2)cc1`, the IC50 in series [1], in series [2] and in series [5] was over 26 µM each time. Also, the 90% effect concentration (IC90) in series [3] is 62 µM; in series [4], 4 µM.
For `Fc1ccc(CSc2nnc(-c3ccccc3)o2)cc1` [drawing 136], the half-maximal inhibitory concentration (IC50) in series [1], in series [2] and in series [5] was over 26 µM each time. Besides, in series [4], the 90% effect concentration (IC90) stood at 1 µM.

Values taken from US10301294B2, “Compounds for the treatment of tuberculosis” (priority 2013, dated 2019).
